The record followed here is US9486506B2 (Novo Nordisk A/S, priority 2011, dated 2016).

The structures appear in SMILES notation. Numbered stars: 1 amine (or outer) side, 2 acyl side, 3 side chain; on linkers, the order of the positions; unused ones are H or OH. Side chains are listed from the residue outwards. Peptide text beside a SMILES is read from it. * marks the point of attachment. C18 diacid = O=C(O)CCCCCCCCCCCCCCCCC(=O)*; γGlu = O=C(O)[C@H](CCC(=O)[*:2])N[*:1]; AEEA = NCCOCCOCC(=O)O

Data set [1] is described as follows: Assay (X) Chemical stability assessment by RP-UPLC. In kind it is physicochemical. The note with it: pH 8.15, 14 days at 37° C. vs 5° C., 333 μM.
The nature of data set [2]: Assay (XI) Pharmacokinetic study in minipigs. Type of data set: in vivo, Göttingen minipigs. The note with it: i.v. administration, terminal half-life; for half-life: both sexes, Göttingen, minipig, plasma, iv, read-out: iv PK minipig [T½] (converted). How it is done:
Buffer: • 50 mM Dinatriumphosphatdihydrat • 184 mM Propylenglycol • 58 mM Phenol • pH adjusted to 8.15 with H3PO4. In cases where pH was adjusted to 8.15 after re-suspension of analogues, 0.2 M NaOH was used. Assay (XI) Pharmacokinetic Study in Minipigs
This is done in a pharmacokinetic (PK) study, whereamong other parameters the terminal half-life and the clearance of the derivative in question is determined. Increasing the terminal half-life and decreasing the clearance means that the compound of study is eliminated slower from the body.
Male or female Göttingen minipigs were obtained from Ellegaard Göttingen Minipigs (Dalmose, Denmark) approximately 7-14 months of age and weighing from approximately 16-35 kg were used in the studies. The minipigs were housed either individually (pigs with permanent catheters) or in a group and fed restrictedly once or twice daily with SDS minipig diet (Special Diets Services, Essex, UK). In some studies two permanent central venous catheters were implanted in vena cava caudalis or cranialis in each animal after at least 2 weeks of acclimatisation. […] On each dosing occasion these pigs were instrumented with a venflon in one ear vein through which the derivatives were dosed. Blood sampling was done by venipuncture in v. jugularis or v. cava cranialis
The animals were either unfasted or fasted for approximately 18 h before dosing and from 0 to 4 h after dosing, but had ad libitum access to water during the whole period.
Intravenous injections (the volume corresponding to usually 2-3 nmol/kg, for example 0.1 ml/kg) of the compounds were given through one catheter or through the venflon, and blood was sampled at predefined time points for up till 13 days post dosing (preferably through the other catheter or by venipuncture). Blood samples (for example 0.8 ml) were collected in tubes with EDTA buffer (8 mM) (sometimes aprotinin 500 KIU/ml blood was added) and then centrifuged at 4° C. and 1942 G for 10 minutes. […] Based on these measurements, time-plasma concentration profiles for the compound of study are plotted and a so-called non-compartmental pharmacokinetic analysis of the data is performed in WinNonlin v. 5.0 or Phoenix v. 6.2 (Pharsight Inc., Mountain View, Calif., USA) or other relevant software for PK analysis. For most compounds, the terminal part of the plasma-concentration profiles will be linear when drawn in a semi-logarithmic plot, reflecting that after the initial distribution, drug is removed from the body at a constant fractional rate. The rate (lambda Z or is equal to minus the slope of the terminal part of the plot. From this rate, also the terminal half-life may be calculated, as t½=ln(2)/λz (see, e.g., Johan Gabrielsson and Daniel Weiner: Pharmacokinetics and Pharmacodynamic Data Analysis. Concepts & Applications, 3rd Ed., Swedish Pharmaceutical Press, Stockholm (2000)).
Clearance is defined as the dose (D) divided by area under the curve (AUC) on the plasmaconcentration versus time profile (Rowland, M and Tozer T N: Clinical Pharmacokinetics: Concepts and Applications, 3rd edition, 1995 Williams Wilkins)

The target of another data set is T1, glucagon receptor (Homo sapiens, UniProt P47871).
T1 construct: expressed in transfected cells
T1 sequence (P47871 26-477): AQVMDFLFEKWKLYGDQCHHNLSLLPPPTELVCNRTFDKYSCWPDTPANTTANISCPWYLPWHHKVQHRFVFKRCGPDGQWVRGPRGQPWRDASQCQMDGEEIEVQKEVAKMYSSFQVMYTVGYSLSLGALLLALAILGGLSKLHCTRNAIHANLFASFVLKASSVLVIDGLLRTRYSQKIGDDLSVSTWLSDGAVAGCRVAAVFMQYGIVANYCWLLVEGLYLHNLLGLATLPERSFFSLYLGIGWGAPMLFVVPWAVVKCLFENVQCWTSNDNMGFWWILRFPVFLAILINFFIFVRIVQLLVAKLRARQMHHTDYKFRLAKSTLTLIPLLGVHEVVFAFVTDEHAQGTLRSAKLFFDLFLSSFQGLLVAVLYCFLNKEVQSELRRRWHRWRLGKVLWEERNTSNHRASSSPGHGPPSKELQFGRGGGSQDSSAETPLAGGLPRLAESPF
Briefly: Assay (I) Glucagon activity (cAMP biosensor, FLIPR). In kind it is cell-based.

What is called EC50 is the concentration that produces a half-maximal response. For `CC(C)C[C@H](NC(=O)[C@H](CC(=O)O)NC(=O)[C@H](CC(C)C)NC(=O)[C@H](Cc1ccc(O)cc1)NC(=O)[C@H](CCCNC(=N)N)NC(=O)[C@H](CO)NC(=O)[C@H](Cc1ccc(O)cc1)NC(=O)[C@H](CC(=O)O)NC(=O)[C@H](CO)NC(=O)[C@@H](NC(=O)[C@H](Cc1ccccc1)NC(=O)[C@@H](NC(=O)CNC(=O)[C@H](CCC(N)=O)NC(=O)[C@H](CO)NC(=O)[C@@H](N)Cc1c[nH]cn1)[C@@H](C)O)[C@@H](C)O)C(=O)N[C@@H](CCCNC(=N)N)C(=O)N[C@@H](CCCNC(=N)N)C(=O)N[C@@H](C)C(=O)N[C@@H](CCC(N)=O)C(=O)N[C@@H](CC(=O)O)C(=O)N[C@@H](Cc1ccccc1)C(=O)N[C@H](C(=O)N[C@@H](CCCCNC(=O)CC[C@H](NC(=O)CC[C@H](NC(=O)COCCOCCNC(=O)COCCOCCNC(=O)CC[C@H](NC(=O)CCCCCCCCCCCCCCCCC(=O)O)C(=O)O)C(=O)O)C(=O)O)C(=O)N[C@@H](Cc1c[nH]c2ccccc12)C(=O)N[C@@H](CC(C)C)C(=O)N[C@@H](CC(C)C)C(=O)N[C@@H](CO)C(=O)N[C@H](C(=O)O)[C@@H](C)O)C(C)C` [Example 15, N^ε24-[(4S)-4-carboxy-4-[[(4S)-4-carboxy-4-[[2-[2-[2-[[2-[2-[2-[[(4S)-4-carboxy-4-(17-carboxyheptadecanoylamino)butanoyl]amino]ethoxy]ethoxy]acetyl]amino]ethoxy]ethoxy]acetyl]amino]butanoyl]amino]butanoyl]-[Arg^12,Leu^16,Lys^24,Leu^27,Ser^28]-Glucagon] (H-HSQGTFTSDYSRYLDLRRAQDFVK([γGlu-γGlu-AEEA-AEEA-γGlu-C18 diacid])WLLST-OH), the “Chemical stability [Purity loss/14 days 37 C.]” value in data set [1] is 5.3%. The half-life in data set [2] is 3.23 days. Moreover, the EC50 on glucagon receptor was found to be 0.255 nM.
Turning to `CC(C)C[C@H](NC(=O)[C@H](Cc1c[nH]c2ccccc12)NC(=O)[C@H](CCCCNC(=O)CC[C@H](NC(=O)CC[C@H](NC(=O)COCCOCCNC(=O)COCCOCCNC(=O)CC[C@H](NC(=O)CCCCCCCCCCCCCCCCC(=O)O)C(=O)O)C(=O)O)C(=O)O)NC(=O)[C@@H](NC(=O)[C@H](Cc1ccccc1)NC(=O)[C@H](CCC(=O)O)NC(=O)[C@H](CCC(N)=O)NC(=O)[C@H](C)NC(=O)[C@H](CCCNC(=N)N)NC(=O)[C@H](CCCNC(=N)N)NC(=O)[C@@H](NC(=O)[C@H](CC(=O)O)NC(=O)[C@H](CC(C)C)NC(=O)[C@H](Cc1ccc(O)cc1)NC(=O)[C@H](CCCCN)NC(=O)[C@H](CO)NC(=O)[C@@H](NC(=O)[C@H](CC(=O)O)NC(=O)[C@H](CO)NC(=O)[C@@H](NC(=O)[C@H](Cc1ccccc1)NC(=O)[C@@H](NC(=O)CNC(=O)[C@H](CCC(N)=O)NC(=O)[C@H](CO)NC(=O)[C@@H](N)Cc1c[nH]cn1)[C@@H](C)O)[C@@H](C)O)C(C)C)[C@@H](C)O)C(C)C)C(=O)N[C@@H](CC(C)C)C(=O)N[C@@H](CO)C(=O)N[C@H](C(=O)O)[C@@H](C)O` [Example 38, N^ε24-[(4S)-4-carboxy-4-[[(4S)-4-carboxy-4-[[2-[2-[2-[[2-[2-[2-[[(4S)-4-carboxy-4-(17-carboxyheptadecanoylamino)butanoyl]amino]ethoxy]ethoxy]acetyl]amino]ethoxy]ethoxy]acetyl]amino]butanoyl]amino]butanoyl]-[Val10,Thr16,Glu21,Lys24,Leu27,Ser28]-Glucagon] (H-HSQGTFTSDVSKYLDTRRAQEFVK([γGlu-γGlu-AEEA-AEEA-γGlu-C18 diacid])WLLST-OH), the “Chemical stability [Purity loss/14 days 37 C.]” value in data set [1] is 4.2%. Further, the “iv PK minipig [T½]” value in data set [2] is reported as 83.0 h.
Regarding `CC(C)C[C@H](NC(=O)[C@H](CC(=O)O)NC(=O)[C@H](CC(C)C)NC(=O)[C@H](Cc1ccc(O)cc1)NC(=O)[C@H](CCCCN)NC(=O)[C@H](CO)NC(=O)[C@@H](NC(=O)[C@H](CC(=O)O)NC(=O)[C@H](CO)NC(=O)[C@@H](NC(=O)[C@H](Cc1ccccc1)NC(=O)[C@@H](NC(=O)CNC(=O)[C@H](CCC(N)=O)NC(=O)[C@H](CO)NC(=O)[C@@H](N)Cc1c[nH]cn1)[C@@H](C)O)[C@@H](C)O)C(C)C)C(=O)N[C@@H](CCCNC(=N)N)C(=O)N[C@@H](CCCNC(=N)N)C(=O)N[C@@H](C)C(=O)N[C@@H](CCC(N)=O)C(=O)N[C@@H](CCC(=O)O)C(=O)N[C@@H](Cc1ccccc1)C(=O)N[C@H](C(=O)N[C@@H](CCCCNC(=O)CC[C@H](NC(=O)COCCOCCNC(=O)COCCOCCNC(=O)CC[C@H](NC(=O)CC[C@H](NC(=O)CCCCCCCCCCCCCCCCC(=O)O)C(=O)O)C(=O)O)C(=O)O)C(=O)N[C@@H](Cc1c[nH]c2ccccc12)C(=O)N[C@@H](CC(C)C)C(=O)N[C@@H](CC(C)C)C(=O)N[C@@H](CO)C(=O)N[C@H](C(=O)O)[C@@H](C)O)C(C)C` [Example 63, N^ε24-[(4S)-4-carboxy-4-[[2-[2-[2-[[2-[2-[2-[[(4S)-4-carboxy-4-[[(4S)-4-carboxy-4-(17-carboxyheptadecanoylamino)butanoyl]amino]butanoyl]amino]ethoxy]ethoxy]acetyl]amino]ethoxy]ethoxy]acetyl]amino]butanoyl]-[Val10,Leu16,Glu21,Lys24,Leu27,Ser28]-Glucagon] (H-HSQGTFTSDVSKYLDLRRAQEFVK([γGlu-AEEA-AEEA-γGlu-γGlu-C18 diacid])WLLST-OH), in data set [1], the “Chemical stability [Purity loss/14 days 37 C.]” value came to 4.1%. Moreover, in data set [2], the half-life is 2.65 days. The EC50 on glucagon receptor was determined as 0.088 nM.
As for `CC(C)C[C@H](NC(=O)[C@H](CC(=O)O)NC(=O)[C@H](CC(C)C)NC(=O)[C@H](Cc1ccc(O)cc1)NC(=O)[C@H](CCCCN)NC(=O)[C@H](CO)NC(=O)[C@H](Cc1ccc(O)cc1)NC(=O)[C@H](CC(=O)O)NC(=O)[C@H](CO)NC(=O)[C@@H](NC(=O)[C@H](Cc1ccccc1)NC(=O)[C@@H](NC(=O)CNC(=O)[C@H](CCC(N)=O)NC(=O)[C@H](CO)NC(=O)[C@@H](N)Cc1c[nH]cn1)[C@@H](C)O)[C@@H](C)O)C(=O)N[C@@H](CCCNC(=N)N)C(=O)N[C@@H](CCCNC(=N)N)C(=O)N[C@@H](C)C(=O)N[C@@H](CCC(N)=O)C(=O)N[C@@H](CC(=O)O)C(=O)N[C@@H](Cc1ccccc1)C(=O)N[C@H](C(=O)N[C@@H](CCCCNC(=O)CC[C@H](NC(=O)CC[C@H](NC(=O)CC[C@H](NC(=O)CC[C@H](NC(=O)CCCCCCCCCCCCCCCCC(=O)O)C(=O)O)C(=O)O)C(=O)O)C(=O)O)C(=O)N[C@@H](Cc1c[nH]c2ccccc12)C(=O)N[C@@H](CC(C)C)C(=O)N[C@@H](CC(C)C)C(=O)N[C@@H](CO)C(=O)N[C@H](C(=O)O)[C@@H](C)O)C(C)C` [Example 80, N^ε24-[(4S)-4-carboxy-4-[[(4S)-4-carboxy-4-[[(4S)-4-carboxy-4-[[(4S)-4-carboxy-4-(17-carboxyheptadecanoylamino)butanoyl]amino]butanoyl]amino]butanoyl]amino]butanoyl]-[Leu16,Lys24,Leu27,Ser28]-Glucagon], the “Chemical stability [Purity loss/14 days 37 C.]” value in data set [1] came out at 4.5%. The half-life in data set [2] was 2.54 days. Further, the EC50 at glucagon receptor turned out to be 0.126 nM.
